Reference: patent publication US20240270748A1 (Merck Patent GmbH, priority 2021, published 2024)

Tests used:
[1] = system: NCI-H226 cells; assay: Viability assay in NCI-H226 (Yap-dependent) cells, CyQuant; format: cell-based, human; settings: class symbols
Procedure: (§1) Viability Assay in NCI-H226 (Yap-Dependent) and SW620 Yap KO (Yap Independent) Cells
(§2) The ability of YAP-TEAD inhibitors to inhibit tumor cell growth was evaluated using two different cell lines: NCI-H226, which is a YAP dependent cell line, and SW620 cells, where YAP and TAZ were knocked out using CRISPR to generate a YAP independent cell line.
(§3) For the assay, cells were treated in duplicates with the test compounds in a 10-point dose, 1:3 dilution steps, with the top concentration starting at 30 μM (final concentration in assay). After a 96 hour incubation at 37° C., 95% rH, and 5% CO2, a cell-permeant DNA-binding dye that stains only healthy cells (CyQUANT®, Promega) was added to the cells, allowing the quantification of cell viability.
(§4) Cell Media: The NCI-H226 cells were cultured in the following media: RPMI 1640, +10% FBS, +1× GlutaMAX, +10 mM HEPES, +0.5% Pen/Strep. The SW620-KO cells were cultured in the following media: DMEM/F-12, +10% FBS, +1× GlutaMAX, +10 mM HEPES, +0.5% Pen/Strep.
(§5) Reagents: The reagents used are listed below:
(§6) Cell culture: The cells were examined using an inverted microscope to check for health, cell density, etc. To dissociate adherent cells, the monolayer of cells was washed once with pre-warmed PBS. After removing the PBS, 3 ml pre-warmed Accutase was added to a F75 flask, dispersed evenly and the flask was allowed to sit in incubator for ˜4-5 minutes.
(§7) When a single cell suspension was obtained, 7 ml of prewarmed growth media was added and resuspended with the cells. The cell suspension was transferred to a sterile 15 ml conical centrifuge tube, and spun for 5 min at 300×g, RT. The supernatant was discarded and the pellet was resuspended in 10 ml of pre-warmed growth media.
(§8) The total cell count was determined, and 20 μl of the desired cell number was added to each well of a 384 well plate using a Multidrop Combi. The plates were then incubated for 24 hours at 37° C., 95% rH, and 5% CO2.
(§9) Compound treatment: 24 hours after seeding, the cells were treated with compounds.
(§10) A 1:333 dilution of compounds, diluted in DMSO, was made to get a final concentration of 0.3% DMSO per well. To transfer the compounds to the assay plate, […] was shot from Labcyte low dead volume plates to the cell plates containing 20 μl media/well with the ECHO 555 liquid handling system.
(§11) After treatment, the cells were fed with 20 μl fresh pre-warmed assay media using a Multidrop combi.
(§12) The assay plates were then incubated for 96 h at 37° C., 95% rH, and 5% CO2.
(§13) 96 h after treatment 30 μl of CyQuant® reagent was added to the assay plates using a Multidrop combi in the dark. The plates were then incubated for 1 hour at 37° C., 95% rH and 5% CO2. Thereafter, the assay plates were removed from the incubator and allowed to equilibrate to RT for 30 min in the dark without lid. Finally, they were measured using an EnVision microplate reader with a FITC bottom read program.

[2] = system: YAP-TEAD interaction; assay: SK-HEP-1 reporter assay (8xTEAD responsive elements driving NanoLuc luciferase); format: cell-based
Method in brief: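 SK-HEP-1 cells stably carrying 8×TEAD-driven NanoLuc treated in duplicate, 10-point dose from 30 μM final, 0.3% DMSO, 24 h at 37° C. Luminescence after NanoGlo lysis/substrate addition; IC50 calculated from dose response.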

[3] = system: SW620 Yap KO cells; assay: Viability assay in SW620 Yap KO (Yap independent) cells, CyQuant; format: cell-based; settings: Homo sapiens, SW-620, 96 h
Procedure: as §1, §2, §3, §4, §5, §6, §7, §8, §9, §10, §11, §12, §13

[4] = Homo sapiens, SK-HEP1, SK-HEP-1 reporter assay, n.d. = value not detectable below threshold given in parentheses, ND = not determinable within the entire range
[5] = n.d. = value not detectable below threshold given in parentheses, ND = not determinable within the entire range
[6] = Homo sapiens, SK-HEP1, SK-HEP-1 reporter assay, class symbols
[7] = Homo sapiens, SK-HEP1, SK-HEP-1 reporter assay, n.d. = value not detectable below threshold given in parentheses
[8] = n.d. = value not detectable below threshold given in parentheses

Compound | IC50 ([1]; Homo sapiens, NCI-H226, 96 h) | IC50 [3, 5] | IC50 [2, 6] | IC50 [3, 8] | also measured
Cn1cc2c3cc(C(=O)N=S(C)(C)=O)ccc3n(-c3ccc(C(F)(F)F)cn3)c2n1 [Example C149, N-[dimethyl(oxo)-λ^6-sulfanylidene]-2-methyl-8-[5-(trifluoromethyl)pyridin-2-yl]-2H,8H-pyrazolo[3,4-b]indole-5-carboxamide] | 1 to 100 nM | > 30000 nM |  |  | IC50 [2, 4]: > 320 nM
Cc1snc2c1c1cc(C(=O)N=S(C)(=O)CCCO)ccc1n2-c1ccc(C(F)(F)F)cc1 (stereo not drawn) [Example C16, N-[(3-hydroxypropyl)(methyl) οχο-λ6-sulfanylidene]-3-methyl-8-[4-(trifluoromethyl)phenyl]-8H-[1,2]thiazolo[3,4-b]indole-5-carboxamide] | 1 to 100 nM | > 3000 nM | 10 to 100 nM |  | 
Cn1cc2c3cc(C(=O)N=S(C)(=O)CCO)ccc3n(-c3ccc(C(F)(F)F)cc3)c2n1 (single isomer, unassigned) [Example C73] | 1 to 100 nM | > 30000 nM | 100 to 10000 nM |  | 
CC[C@H](CO)NC(=O)c1ccc2c(c1)c1c(C)snc1n2-c1ccc(C(F)(F)F)cc1 [Example C77, N-[(2R)-1-hydroxybutan-2-yl]-3-methyl-8-[4-(trifluoromethyl)phenyl]-8H-[1,2]thiazolo[3,4-b]indole-5-carboxamide] | 1 to 100 nM | > 3200 nM | 10 to 100 nM |  | 
Cn1cc2c3cc(C(=O)N=[S@@](C)(=O)CCO)ccc3n(-c3ccc(C(F)(F)F)cc3)c2n1 (single isomer, unassigned) [Example C74] | 1 to 100 nM | > 30000 nM | 10 to 100 nM |  | 
Cn1nc2c3cc(C(=O)N=[S@@](=O)(CCCO)Cc4cccnc4)ccc3n(-c3ccc(C(F)(F)F)cc3)c2n1 (single isomer, unassigned) [Example C200] | 100 to 1000 nM |  |  | > 3000 nM | IC50 [2, 7]: > 9500 nM
Cc1c2c3cc(C(=O)N[C@H](C)CO)ccc3n(-c3ccc(C(F)(F)F)cc3)c2nn1C [Example C97, N-[(2R)-1-hydroxypropan-2-yl]-2,3-dimethyl-8-[4-(trifluoromethyl)phenyl]-2H,8H-pyrazolo[3,4-b]indole-5-carboxamide] | 1 to 100 nM | > 30000 nM | 10 to 100 nM |  | 
Cn1cc2c3cc(C(=O)NC(CCO)c4ccccn4)ccc3n(-c3ccc(C(F)(F)F)cc3)c2n1 (stereo not drawn) [Example C225, N-[3-hydroxy-1-(pyridin-2-yl)propyl]-2-methyl-8-[4-(trifluoromethyl)phenyl]-2H,8H-pyrazolo[3,4-b]indole-5-carboxamide] | 1 to 100 nM |  | 10 to 100 nM | > 30000 nM | 
Cn1cc2c3nc(C(=O)N=S(C)(=O)CCCO)ccc3n(-c3ccc(C(F)(F)F)cc3)c2n1 (stereo not drawn) [Example C117, N-[(3-hydroxypropyl)(methyl)oxo- \6-sulfanylidene]-4-methyl-7-[4-(trifluoromethyl)phenyl]-4,5,7,12-tetraazatricyclo[6.4.0.0^2,6∧{2,6}]dodeca-1(8),2,5,9,11-pentaene-11-carboxamide] | 100 to 1000 nM | > 30000 nM |  |  | IC50 [2, 4]: > 1000 nM
Cc1snc2c1c1cc(C(=O)N=S(C)(=O)CCO)ccc1n2-c1ccc(C(F)(F)F)cc1 (single isomer, unassigned) [Example C102] | 1 to 100 nM | > 30000 nM | 10 to 100 nM |  | 
C[C@H](NC(=O)c1ccc2c(c1)c1cn(C)nc1n2-c1ccc(C(F)(F)F)cc1)c1ccccn1 [Example C105, 2-methyl-N-[(1S)-1-(pyridin-2-yl)ethyl]-8-[4-(trifluoromethyl)phenyl]-2H,8H-pyrazolo[3,4-b]indole-5-carboxamide] | 1 to 100 nM | > 30000 nM | 10 to 100 nM |  | 
Cc1snc2c1c1cc(C(=O)NCc3ccncc3)ccc1n2-c1ccc(C(F)(F)F)cc1 [Example C62, 3-methyl-N-[(pyridin-4-yl)methyl]-8-[4-(trifluoromethyl)phenyl]-8H-[1,2]thiazolo[3,4-b]indole-5-carboxamide] | 1 to 100 nM | > 3200 nM | 10 to 100 nM |  | 
Cn1cc2c3cc(C(=O)N=[S@](=O)(CCCO)Cc4ccccn4)ccc3n(-c3ccc(C(F)(F)F)cc3)c2n1 (single isomer, unassigned) [Example C213] |  |  |  | > 3000 nM | IC50 ([1]; 96 h): 1 to 100 nM; IC50 ([2]; SK-HEP-1 reporter assay, n.d. = value not detectable below threshold given in parentheses): > 300 nM
Cn1nc2c3cc(C(=O)N[C@@](C)(CO)c4ccccn4)ccc3n(-c3ccc(C(F)(F)F)cc3)c2n1 (single isomer, unassigned) [Example C189] | 1 to 100 nM |  | 10 to 100 nM | > 30000 nM | 
Cc1snc2c1c1cc(C(=O)N[C@H](C)CO)ccc1n2-c1ccc(C(F)(F)F)cc1 [Example C66, N-[(2R)-1-hydroxypropan-2-yl]-3-methyl-8-[4-(trifluoromethyl)phenyl]-8H-[1,2]thiazolo[3,4-b]indole-5-carboxamide] | 1 to 100 nM | > 3200 nM | 10 to 100 nM |  | 
Cn1nc2c3cc(C4CC(Cl)=NO4)ccc3n(-c3ccc(C(F)(F)F)cc3)c2n1 (stereo not drawn) [Example C18, 3-chloro-5-{2-methyl-4-[4-(trifluoromethyl)phenyl]-2H,4H-[1,2,3]triazolo[4,5-b]indol-7-yl}-4,5-dihydro-1,2-oxazole] | 1 to 100 nM | > 30000 nM | 10 to 100 nM |  | 
Cn1cc2c3cc(C4CC(Cl)=NO4)ccc3n(-c3ccc(C(F)(F)F)cc3)c2n1 (stereo not drawn) [Example C17, 3-chloro-5-{2-methyl-8-[4-(trifluoromethyl)phenyl]-2H,8H-pyrazolo[3,4-b]indol-5-yl}-4,5-dihydro-1,2-oxazole] | 1 to 100 nM | > 30000 nM | 10 to 100 nM |  | 
C[C@H](CO)NC(=O)c1ccc2c(c1)c1cn(C)nc1n2-c1ccc(C(F)F)cc1 [Example C247, 8-[4-(difluoromethyl)phenyl]-N-[(2R)-1-hydroxypropan-2-yl]-2-methyl-2H,8H-pyrazolo[3,4-b]indole-5-carboxamide] | 1 to 100 nM |  | 10 to 100 nM | > 30000 nM | 
Cn1cc2c3cc(C(=O)NC(CO)c4cscn4)ccc3n(-c3ccc(C(F)(F)F)cc3)c2n1 (stereo not drawn) [Example C277, N-[2-hydroxy-1-(1,3-thiazol-4-yl)ethyl]-2-methyl-8-[4-(trifluoromethyl)phenyl]-2H,8H-pyrazolo[3,4-b]indole-5-carboxamide] | 1 to 100 nM |  | 10 to 100 nM | > 30000 nM | 
[2H]C1([2H])C(n2c3ccc(C(=O)NC)cc3c3cn(C)nc32)C([2H])([2H])C([2H])([2H])C([2H])([2H])C1([2H])[2H] [Example C194, 8-[(2,2,3,3,4,4,5,5,6,6-^2H10)cyclohexyl]-N,2-dimethyl-2H,8H-pyrazolo[3,4-b]indole-5-carboxamide] | 1000 to 10000 nM |  | 100 to 10000 nM | > 30000 nM | 
Cn1cnc2c1c1cc(C3CC(Cl)=NO3)ccc1n2-c1ccc(C(F)(F)F)cc1 (stereo not drawn) [Example C198, 3-chloro-5-{1-methyl-4-[4-(trifluoromethyl)phenyl]-1H,4H-imidazo[4,5-b]indol-7-yl}-4,5-dihydro-1,2-oxazole] | 1 to 100 nM |  | 10 to 100 nM | > 3000 nM | 
Cn1nc2c3cc(C(=O)N=[S@@](=O)(CCO)Cc4ccccn4)ccc3n(-c3ccc(C(F)(F)F)cc3)c2n1 (single isomer, unassigned) [Example C157] | 100 to 1000 nM |  | 10 to 100 nM |  | IC50 ([3]; class symbols): 1000 to 10000 nM
Cn1cc2c3cc(C(=O)N=[S@@](=O)(CCCO)Cc4ccccn4)ccc3n(-c3ccc(C(F)(F)F)cc3)c2n1 (single isomer, unassigned) [Example C210] | 100 to 1000 nM |  |  | > 3000 nM | IC50 [2, 7]: > 95 nM
